According to ChEMBL document CHEMBL3286176, “Discovery and structure-activity relationship of novel 2,3-dihydrobenzofuran-7-carboxamide and 2,3-dihydrobenzofuran-3(2H)-one-7-carboxamide derivatives as poly(ADP-ribose)polymerase-1 inhibitors” (J Med Chem, 2014):

Target: Poly [ADP-ribose] polymerase 1 (Homo sapiens, UniProt P09874)
Test: Inhibition of PARP-1 (unknown origin) using biotinylated NAD+ as substrate after 60 mins by spectrophotometry
Conditions: not given

Poly [ADP-ribose] polymerase 1, sequence (P09874 whole entry): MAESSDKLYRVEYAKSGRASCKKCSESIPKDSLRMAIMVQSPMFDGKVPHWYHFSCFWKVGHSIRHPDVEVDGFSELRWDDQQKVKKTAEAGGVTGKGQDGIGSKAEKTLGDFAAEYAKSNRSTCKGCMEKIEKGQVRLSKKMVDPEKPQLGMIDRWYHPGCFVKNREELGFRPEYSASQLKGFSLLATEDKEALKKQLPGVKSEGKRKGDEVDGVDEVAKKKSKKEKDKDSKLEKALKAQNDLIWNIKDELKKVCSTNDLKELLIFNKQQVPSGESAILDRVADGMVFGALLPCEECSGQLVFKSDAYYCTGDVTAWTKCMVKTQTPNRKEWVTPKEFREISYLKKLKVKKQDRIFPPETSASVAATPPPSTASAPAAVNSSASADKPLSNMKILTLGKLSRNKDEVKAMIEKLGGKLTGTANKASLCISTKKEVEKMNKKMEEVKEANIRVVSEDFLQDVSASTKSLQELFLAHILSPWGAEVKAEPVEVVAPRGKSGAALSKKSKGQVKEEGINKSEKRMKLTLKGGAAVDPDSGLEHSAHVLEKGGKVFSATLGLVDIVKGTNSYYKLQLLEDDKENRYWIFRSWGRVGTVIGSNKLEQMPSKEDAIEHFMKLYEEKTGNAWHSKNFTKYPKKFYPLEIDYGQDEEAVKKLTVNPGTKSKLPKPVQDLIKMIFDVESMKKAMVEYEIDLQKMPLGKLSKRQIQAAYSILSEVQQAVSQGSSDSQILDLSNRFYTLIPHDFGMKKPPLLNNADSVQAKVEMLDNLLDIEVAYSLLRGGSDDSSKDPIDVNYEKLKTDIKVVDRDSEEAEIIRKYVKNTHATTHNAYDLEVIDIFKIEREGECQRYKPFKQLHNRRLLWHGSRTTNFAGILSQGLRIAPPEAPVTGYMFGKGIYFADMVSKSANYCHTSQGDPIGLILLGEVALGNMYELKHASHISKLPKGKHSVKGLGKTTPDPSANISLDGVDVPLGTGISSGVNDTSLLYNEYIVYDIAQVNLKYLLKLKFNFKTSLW

| Structure (SMILES) | IC50 [µM] |
| --- | --- |
| NC(=O)c1nn(CCCN2C(=O)C(=O)c3ccccc32)c2ccccc12 | 6.8 |
| NC(=O)c1cccc2c1O/C(=C\c1cccc(OCCN3CCOCC3)c1)C2=O | > 10 |
| NC(=O)c1cccc2c1O/C(=C\c1cccc(OCCN3CCCCC3)c1)C2=O | > 10 |
| CC1Cc2cc([N+](=O)[O-])cc(C(N)=O)c2O1 (stereo unspecified) | > 25 |
| NC(=O)c1cccc2c1O/C(=C\c1ccc(OCC3CO3)cc1)C2=O (stereo unspecified) | 1.21 |
| NC(=O)c1cccc2c1O/C(=C\c1cccc(Oc3ccccc3)c1)C2=O | 4.65 |
| NC(=O)c1cccc2c1O/C(=C\c1ccc(O)cc1O)C2=O | 0.753 |
| NC(=O)c1cccc2c1O/C(=C\c1cccc(O)c1)C2=O | 2.14 |
| NC(=O)c1cccc2c1O/C(=C\c1ccc(Cl)cc1)C2=O | 6.09 |
| NC(=O)c1cc([N+](=O)[O-])cc2c1OCC2 | > 25 |
| COc1cc(/C=C2\Oc3c(C(N)=O)cccc3C2=O)ccc1O | 3.62 |
| NC(=O)c1cc(N)cc2c1OCC2 | > 25 |
| NC(=O)c1cccc2c1O/C(=C\c1ccc(O)c(O)c1)C2=O | 0.531 |
| NC(=O)c1cccc2c1O/C(=C\c1cc(O)ccc1O)C2=O | > 10 |
| NC(=O)c1cccc2c1O/C(=C\c1cc(O)cc(O)c1)C2=O | > 10 |
| NC(=O)c1cccc2c1O/C(=C\c1ccc(OCCN3CCOCC3)cc1)C2=O | 2.07 |
| COc1ccc(/C=C2\Oc3c(C(N)=O)cccc3C2=O)cc1 | 3.3 |
| NC(=O)c1cccc2c1O/C(=C\c1ccc(O)cc1)C2=O | 0.813 |
| C[C@@H]1Cc2cccc(C(N)=O)c2O1 | 6.34 |
| NC(=O)c1cc(Br)cc2c1OCC2 | > 25 |
| NC(=O)c1cccc2c1O/C(=C\c1ccccc1O)C2=O | > 10 |
| CC1Cc2cc(N)cc(C(N)=O)c2O1 (stereo unspecified) | > 25 |
| Cc1cc2c(c(C(N)=O)c1)OC(C)C2 (stereo unspecified) | > 25 |

Results, then the compound that gave them:

| IC50 [µM] | Structure (SMILES) |
| --- | --- |
| 0.176 | NC(=O)c1cccc2c1O/C(=C\c1ccc(OCC(O)CN3CCOCC3)cc1)C2=O (stereo unspecified) |
| 8.44 | C[C@H]1Cc2cccc(C(N)=O)c2O1 |
| 0.544 | NC(=O)c1cccc2c1O/C(=C\c1ccc(OCCN3CCCCC3)cc1)C2=O |
| 16.2 | NC(=O)c1cccc2c1OCC2=O |
| 0.445 | NC(=O)c1cccc2c1O/C(=C\c1ccc(OCCN3CCN(c4ccc(F)cc4)CC3)cc1)C2=O |
| 0.079 | CN1CCN(CCS(=O)(=O)Nc2ccc(/C=C3\Oc4c(C(N)=O)cccc4C3=O)cc2)CC1 |
| 2.12 | NC(=O)c1cc(F)cc2c1OCC2 |
| 9.45 | NC(=O)c1cccc2c1OCC2 |
| 10.4 | CC1Cc2cccc(C(N)=O)c2O1 (racemic) |
| 2.45 | CC1Cc2cc(F)cc(C(N)=O)c2O1 (racemic) |
| 0.114 | CN1CCN(CCOc2ccc(/C=C3\Oc4c(C(N)=O)cccc4C3=O)cc2)CC1 |
| 0.718 | NC(=O)c1cccc2c1O/C(=C\c1ccc(OCCCN3CCOCC3)cc1)C2=O |
| 5.33 | CC1Cc2c(N)ccc(C(N)=O)c2O1 (single isomer, unassigned) |
| 0.113 | CN1CCN(CCCS(=O)(=O)Nc2ccc(/C=C3\Oc4c(C(N)=O)cccc4C3=O)cc2)CC1 |
| 2.43 | CC1Cc2c(N)ccc(C(N)=O)c2O1 (single isomer, unassigned; enantiomer 1) |
| 1.53 | C[C@@H]1Cc2cc(F)cc(C(N)=O)c2O1 |
| 0.223 | NC(=O)c1cccc2c1O/C(=C\c1ccc(OCC(=O)N3CCOCC3)cc1)C2=O |
| 3.62 | C[C@H]1Cc2cc(F)cc(C(N)=O)c2O1 |

System: not listed separately
Test: Cytotoxicity against chicken wild-type DT40 cells assessed as cell viability at 10 uM after 72 hrs by ATPlite assay
Format: cell-based, Gallus gallus
Conditions: dt40, 72 h

| Structure (SMILES) | Activity |
| --- | --- |
| C[C@]1(c2nc3c(C(N)=O)cccc3[nH]2)CCCN1 [VELIPARIB] | Non-toxic |
| CN1CCN(CCOc2ccc(/C=C3\Oc4c(C(N)=O)cccc4C3=O)cc2)CC1 | Toxic |

System: not listed separately
Test: Cytotoxicity against chicken BRCA2-deficient DT40 cells assessed as cell viability after 72 hrs by ATPlite assay
Format: cell-based, Gallus gallus
Conditions: not given

| Structure (SMILES) | IC90 at 72 h [µM] |
| --- | --- |
| CN1CCN(CCOc2ccc(/C=C3\Oc4c(C(N)=O)cccc4C3=O)cc2)CC1 | 5.2 |

System: not listed separately
Test: Cytotoxicity against chicken PARP1-deficient DT40 cells assessed as cell viability at 10 uM after 72 hrs by ATPlite assay
Format: cell-based, Gallus gallus
Conditions: dt40, 72 h

| Structure (SMILES) | Activity |
| --- | --- |
| C[C@]1(c2nc3c(C(N)=O)cccc3[nH]2)CCCN1 [VELIPARIB] | Non-toxic |
| CN1CCN(CCOc2ccc(/C=C3\Oc4c(C(N)=O)cccc4C3=O)cc2)CC1 | Toxic |
